Results reported in patent publication US4552879A, “Benzoheterocyclic compounds and pharmaceutical composition thereof” (Otsuka Pharmaceutical Co., Ltd., priority 1980, dated 1985).
Converted amounts (≈) assume the structure as drawn. Like-named read-outs stand apart in the source and are kept apart here.

Experiments:
Test in all cases: Minimum inhibitory concentration, serial dilution method on agar plate
Assay type in all cases: cell-based
[1] = tested on: Salmonella typhi 0-901 (NCTC 8393); conditions: Salmonella enterica
[2] = tested on: Shigella sonnei EW 33
Procedure: The antimicrobial activity of the following test compounds on various test organisms listed below was determined by the serial dilution method on agar plate (Heart Infusion agar produced by Difco Co.) (see CHEMOTHERAPY 22, pp. 1126-1128 (1974)), and the minimum inhibitory concentrations (mcg/ml) obtained are shown in Tables 1, 2 and 3 below.
A sample of each test organism was prepared so that the population of the organism was 1×10^8 cells/ml (O.D. 660 mμ=0.07 to 0.16) and 1×10^6 cells/ml (which was obtained by diluting 100 fold the above 1×10^8 cells/ml preparation).

[3] = tested on: Streptococcus pyogenes IID S-23; conditions: for MIC: Streptococcus pyogenes
[4] = tested on: Proteus rettgeri NIH 96; conditions: Providencia rettgeri
[5] = tested on: Staphylococcus aureus FDA 209 P; conditions: for MIC: Staphylococcus aureus
[6] = tested on: Serratia marcescens IFO 12648
[7] = tested on: Escherichia Coli NIHJ JC-2 (IFO 12734)
[8] = tested on: Pseudomonas putida 12996
[9] = tested on: Pseudomonas aeruginosa E-2; conditions: for MIC: Pseudomonas aeruginosa
[10] = tested on: Klebsiella pneumoniae
[11] = tested on: Pseudomonas aeruginosa ATCC 10145; conditions: for MIC: Pseudomonas aeruginosa
[12] = tested on: Pseudomonas aeruginosa NCTC 10490
[13] = read-out: Minimum Inhibitory Concentration, 1×10^6 cells/ml
[14] = read-out: Minimum Inhibitory Concentration, 1×10^8 cells/ml
[15] = NIH96, read-out: Minimum Inhibitory Concentration, 1×10^6 cells/ml
[16] = IIDS23, 1×10^6 cells/ml, read-out: Minimum Inhibitory Concentration
[17] = IIDS23, 1×10^8 cells/ml, read-out: Minimum Inhibitory Concentration
[18] = NIH96, 1×10^8 cells/ml, read-out: Minimum Inhibitory Concentration
[19] = FDA209, 1×10^6 cells/ml, read-out: Minimum Inhibitory Concentration
[20] = FDA209, 1×10^8 cells/ml, read-out: Minimum Inhibitory Concentration
[21] = IFO12648, 1×10^6 cells/ml, read-out: Minimum Inhibitory Concentration
[22] = IFO12648, 1×10^8 cells/ml, read-out: Minimum Inhibitory Concentration
[23] = Pseudomonas putida, 12996, 1×10^6 cells/ml, read-out: Minimum Inhibitory Concentration
[24] = Pseudomonas putida, 12996, 1×10^8 cells/ml, read-out: Minimum Inhibitory Concentration
[25] = E2, 1×10^6 cells/ml, read-out: Minimum Inhibitory Concentration
[26] = E2, 1×10^8 cells/ml, read-out: Minimum Inhibitory Concentration
[27] = ATCC10145, 1×10^6 cells/ml, read-out: Minimum Inhibitory Concentration
[28] = ATCC10145, 1×10^8 cells/ml, read-out: Minimum Inhibitory Concentration
[29] = NIH96, 1×10^6 cells/ml, read-out: Minimum Inhibitory Concentration
[30] = 1×10^6 cells/ml, read-out: Minimum Inhibitory Concentration
[31] = 1×10^8 cells/ml, read-out: Minimum Inhibitory Concentration

Row | Compound | MIC [1, 13] [µg/mL] | MIC [1, 14] [µg/mL] | MIC ([2]; EW33, 1×10^6 cells/ml) [µg/mL] | MIC ([2]; EW33, 1×10^8 cells/ml) [µg/mL] | MIC [4, 15] [µg/mL] | MIC [7, 13] [µg/mL] | MIC [7, 14] [µg/mL] | MIC [10, 13] [µg/mL] | MIC [10, 14] [µg/mL] | MIC [3, 16] [µg/mL] | MIC [3, 17] [µg/mL] | MIC [4, 18] [µg/mL] | MIC [5, 19] [µg/mL] | MIC [5, 20] [µg/mL] | MIC [6, 21] [µg/mL] | MIC [6, 22] [µg/mL] | MIC [9, 25] [µg/mL] | MIC [9, 26] [µg/mL] | MIC [11, 27] [µg/mL] | MIC [11, 28] [µg/mL] | other results
1 | CCn1cc(C(=O)O)c(=O)c2ccc(C)nc21 [Compound 9, 1-Ethyl-1,4-dihydro-7-methyl-4-oxo-1,8-naphthyridine-3-carboxylic acid, reference compound] | 3.13 (≈ 13.5 µM) | 3.13 (≈ 13.5 µM) | 3.13 (≈ 13.5 µM) | 3.13 (≈ 13.5 µM) | 1.56 (≈ 6.72 µM) | 3.13 (≈ 13.5 µM) | 3.13 (≈ 13.5 µM) | 1.56 (≈ 6.72 µM) | 1.56 (≈ 6.72 µM) |  |  |  |  |  |  |  |  |  |  |  | Minimum Inhibitory Concentration ([3]; 1×10^6 cells/ml): > 100 µg/mL; MIC ([3]; IIDS23, read-out: Minimum Inhibitory Concentration): > 100 µg/mL; MIC ([4]; NIH96, read-out: Minimum Inhibitory Concentration, 1×10^8 cells/ml): 1.56 µg/mL (≈ 6.72 µM); Minimum Inhibitory Concentration ([5]; 1×10^6 cells/ml): 50 µg/mL; MIC ([5]; FDA209, read-out: Minimum Inhibitory Concentration): 50 µg/mL (≈ 215 µM); MIC ([6]; IFO12648, read-out: Minimum Inhibitory Concentration, 1×10^6 cells/ml): 3.13 µg/mL (≈ 13.5 µM); MIC ([6]; IFO12648, read-out: Minimum Inhibitory Concentration, 1×10^8 cells/ml): 3.13 µg/mL (≈ 13.5 µM); Minimum Inhibitory Concentration ([8]; 1×10^6 cells/ml): > 100 µg/mL; MIC ([8]; Pseudomonas putida, 12996, read-out: Minimum Inhibitory Concentration): > 100 µg/mL; Minimum Inhibitory Concentration ([9]; 1×10^6 cells/ml): > 100 µg/mL; MIC ([9]; E2, read-out: Minimum Inhibitory Concentration): > 100 µg/mL; Minimum Inhibitory Concentration ([11]; 1×10^6 cells/ml): > 100 µg/mL; MIC ([11]; ATCC10145, read-out: Minimum Inhibitory Concentration): > 100 µg/mL
2 | CC1CCc2c(N3CCC(N(C)C)CC3)c(F)cc3c(=O)c(C(=O)O)cn1c23 (stereo not shown) [Compound 5, 9-Fluoro-8-(4-dimethylamino-1-piperidyl)-5-methyl-6,7-dihydro-1-oxo-1H,5H-benzo[ij]quinolizine-2-carboxylic acid] | 0.2 (≈ 0.516 µM) | 0.2 (≈ 0.516 µM) | 0.2 (≈ 0.516 µM) | 0.2 (≈ 0.516 µM) | 0.2 (≈ 0.516 µM) | 0.2 (≈ 0.516 µM) | 0.2 (≈ 0.516 µM) | 0.1 (≈ 0.258 µM) | 0.2 (≈ 0.516 µM) | 0.39 (≈ 1.01 µM) | 0.78 (≈ 2.01 µM) | 0.39 (≈ 1.01 µM) | 0.05 (≈ 0.129 µM) | 0.05 (≈ 0.129 µM) | 0.78 (≈ 2.01 µM) | 1.56 (≈ 4.03 µM) | 6.25 (≈ 16.1 µM) | 6.25 (≈ 16.1 µM) | 3.13 (≈ 8.08 µM) | 6.25 (≈ 16.1 µM) | MIC [8, 23]: 6.25 µg/mL (≈ 16.1 µM); MIC [8, 24]: 6.25 µg/mL (≈ 16.1 µM)
3 | CC1CCc2c(N3CCCCC3)c(F)cc3c(=O)c(C(=O)O)cn1c23 (stereo not shown) [Compound 4, 9-Fluoro-8-(1-piperidyl)-5-methyl-6,7-dihydro-1-oxo-1H,5H-benzo[ij]quinolizine-2-carboxylic acid] | 0.39 (≈ 1.13 µM) | 0.39 (≈ 1.13 µM) | 0.78 (≈ 2.26 µM) | 0.78 (≈ 2.26 µM) |  |  |  |  |  | 0.78 (≈ 2.26 µM) | 1.56 (≈ 4.53 µM) | 1.56 (≈ 4.53 µM) | 0.05 (≈ 0.145 µM) | 0.05 (≈ 0.145 µM) | 6.25 (≈ 18.1 µM) | 12.5 (≈ 36.3 µM) | 12.5 (≈ 36.3 µM) | 25 (≈ 72.6 µM) | 12.5 (≈ 36.3 µM) | 12.5 (≈ 36.3 µM) | MIC [4, 29]: 1.56 µg/mL (≈ 4.53 µM); MIC [7, 30]: 1.56 µg/mL (≈ 4.53 µM); MIC [7, 31]: 1.56 µg/mL (≈ 4.53 µM); MIC [8, 23]: 25 µg/mL (≈ 72.6 µM); MIC [8, 24]: 25 µg/mL (≈ 72.6 µM); MIC [10, 30]: 1.56 µg/mL (≈ 4.53 µM); MIC [10, 31]: 1.56 µg/mL (≈ 4.53 µM)
4 | CC1Cc2c(N3CCCC3)c(F)cc3c(=O)c(C(=O)O)cn1c23 (stereo not shown) [Compound 6, 9-(1-Pyrrolidinyl)-8-fluoro-2-methyl-1,2-dihydro-6-oxo-pyrrolo[3,2,1-ij]quinoline-5-carboxylic acid] | 0.1 (≈ 0.316 µM) | 0.1 (≈ 0.316 µM) | 0.024 (≈ 0.0759 µM) | 0.05 (≈ 0.158 µM) |  |  |  |  |  | 0.78 (≈ 2.47 µM) | 0.78 (≈ 2.47 µM) | 0.1 (≈ 0.316 µM) | 0.024 (≈ 0.0759 µM) | 0.024 (≈ 0.0759 µM) | 0.39 (≈ 1.23 µM) | 0.78 (≈ 2.47 µM) | 1.56 (≈ 4.93 µM) | 1.56 (≈ 4.93 µM) | 1.56 (≈ 4.93 µM) | 1.56 (≈ 4.93 µM) | MIC [4, 29]: 0.05 µg/mL (≈ 0.158 µM); MIC [7, 30]: 0.2 µg/mL (≈ 0.632 µM); MIC [7, 31]: 0.39 µg/mL (≈ 1.23 µM); Minimum Inhibitory Concentration ([12]; 1×10^6 cells/ml): 1.56 µg/mL; MIC ([12]; Pseudomonas aeruginosa, NCTC10490, 1×10^8 cells/ml): 1.56 µg/mL (≈ 4.93 µM); MIC [10, 30]: 0.2 µg/mL (≈ 0.632 µM); MIC [10, 31]: 0.2 µg/mL (≈ 0.632 µM)
